Results as given in US20260022142A1, “MACROCYCLIC IMMUNOMODULATORS” (Bristol-Myers Squibb Company, priority 2022, published 2026).
Numbered stars: 1 amine (or outer) side, 2 acyl side, 3 side chain; on linkers, the order of the positions; unused ones are H or OH. Bridge positions count the residues as written; N and C are the ends. Square brackets hold non-standard residues; d marks the D form. Peptide text beside a SMILES is read from it. * marks the point of attachment. ξ: configuration not given here. X2 = CC(C)C[C@H](N[*:1])C(=O)C[C@H](C(=O)[*:2])C(C)C; Phe(4-COOH) = N[C@@H](Cc1ccc(C(=O)O)cc1)C(=O)O; Bip = N[C@@H](Cc1ccc(-c2ccccc2)cc1)C(=O)O; Bta = N[C@@H](Cc1csc2ccccc12)C(=O)O; hArg = N=C(N)NCCCC[C@H](N)C(=O)O; 4Pal = N[C@@H](Cc1ccncc1)C(=O)O; Cha = N[C@@H](CC1CCCCC1)C(=O)O; Ile(3ξ) = CCC(C)[C@H](N)C(=O)O; 12Ado = NCCCCCCCCCCCC(=O)O; dOrn = NCCC[C@@H](N)C(=O)O; dDab = NCC[C@@H](N)C(=O)O; Carboxymethyl = O=C(O)C*; Orn = NCCC[C@H](N)C(=O)O; Aun = NCCCCCCCCCCC(=O)O; Dab = NCC[C@H](N)C(=O)O; AEEA = NCCOCCOCC(=O)O

Target: T1, PD-1/PD-L1 interaction (PE-labeled human PD-L1-Ig binding to Jurkat cell line over-expressing human PD-1) (Homo sapiens, UniProt Q15116)
T1 construct: expressed in transfected cells; host or cells: Jurkat
Assay: Jurkat-PD-1 Cell Binding High-Content Screening Assay (CBA)
Type: cell-based
Details: Jurkat cell line over-expressing human PD-1; PE-labeled PD-L1-Ig 20 nM final; read-out: Jurkat hPD1-PDL1 IC50
In short: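 Binding of fluorescent PD-L1-Ig (20 nM final) to Jurkat-PD-1 cells was measured by automated imaging after 1 h, following a 2 h compound pre-treatment at 37° C.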

T1 sequence (Q15116 25-288): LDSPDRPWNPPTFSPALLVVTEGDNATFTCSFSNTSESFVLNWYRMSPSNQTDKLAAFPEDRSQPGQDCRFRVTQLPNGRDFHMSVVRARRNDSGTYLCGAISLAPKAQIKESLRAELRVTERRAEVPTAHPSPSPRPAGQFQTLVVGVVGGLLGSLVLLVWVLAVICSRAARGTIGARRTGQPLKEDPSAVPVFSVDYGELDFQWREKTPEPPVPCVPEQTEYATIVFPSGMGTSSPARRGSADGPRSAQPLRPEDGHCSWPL

Compound | IC50 [nM]
CC(C)C[C@H]1NC(=O)[C@H](CCCN)NC(=O)[C@H](Cc2c[nH]cn2)NC(=O)[C@H](Cc2ccc(-c3ccccc3)cc2)NC(=O)[C@H](C(C)C)NC(=O)[C@H](Cc2c[nH]c3ccccc23)NC(=O)[C@H](CC(=O)O)NC(=O)[C@H](Cc2ccc(OCC(=O)O)cc2)NC(=O)[C@H](Cc2ccccc2)NC(=O)CSC[C@@H](C(=O)N[C@@H](CCCN)C(=O)NCCOCCOCC(=O)NCCCCCCCCCCC(=O)O)NC(=O)[C@H](CO)NC(=O)[C@H](C(C)C)NC(=O)[C@H](CC2CCCCC2)NC(=O)[C@H](CCN)NC1=O [Compound 3057] ({CH2CO}-FY(Carboxymethyl)DWV[Bip]H[Orn][dL][Dab][Cha]VSC[Orn][AEEA][Aun]-OH; thioether N-14) | 53.9
CCC(C)[C@@H]1NC(=O)[C@H](Cc2ccc(-c3ccccc3)cc2)NC(=O)[C@H](C(C)C)NC(=O)[C@H](Cc2c[nH]c3ccccc23)NC(=O)[C@H](CC(=O)O)NC(=O)[C@H](Cc2ccc(C(=O)O)cc2)NC(=O)[C@H](Cc2ccncc2)NC(=O)CSC[C@@H](C(=O)N[C@H](CC(N)=O)C(=O)NCCOCCOCC(=O)N[C@@H](CCCN)C(=O)NCCCCCCCCCCC(=O)O)NC(=O)[C@H](CO)NC(=O)[C@H](C(C)C)NC(=O)[C@H](CC2CCCCC2)NC(=O)[C@H](CCN)NC(=O)[C@@H](CC(C)C)NC(=O)[C@H](CCCN)NC1=O (stereo partly drawn) [Compound 3058] ({CH2CO}-[4Pal][Phe(4-COOH)]DWV[Bip][Ile(3ξ)][Orn][dL][Dab][Cha]VSC[dN][AEEA][Orn][Aun]-OH; thioether N-14) | 13
CCC(C)[C@@H]1NC(=O)[C@H](Cc2ccc(-c3ccccc3)cc2)NC(=O)[C@H](C(C)C)NC(=O)[C@H](Cc2c[nH]c3ccccc23)NC(=O)[C@H](CC(=O)O)NC(=O)[C@H](Cc2ccc(C(=O)O)cc2)NC(=O)[C@H](Cc2ccncc2)NC(=O)CSC[C@@H](C(=O)N[C@H](CO)C(=O)NCCOCCOCC(=O)N[C@@H](CCCN)C(=O)NCCCCCCCCCCC(=O)O)NC(=O)[C@H](CO)NC(=O)[C@H](C(C)C)NC(=O)[C@H](CC2CCCCC2)NC(=O)[C@H](CCN)NC(=O)[C@@H](CC(C)C)NC(=O)[C@H](CCCN)NC1=O (stereo partly drawn) [Compound 3059] ({CH2CO}-[4Pal][Phe(4-COOH)]DWV[Bip][Ile(3ξ)][Orn][dL][Dab][Cha]VSC[dS][AEEA][Orn][Aun]-OH; thioether N-14) | 12.2
CCC(C)[C@@H]1NC(=O)[C@H](Cc2ccc(-c3ccccc3)cc2)NC(=O)[C@H](C(C)C)NC(=O)[C@H](Cc2c[nH]c3ccccc23)NC(=O)[C@H](CC(=O)O)NC(=O)[C@H](Cc2ccc(OCC(=O)O)cc2)NC(=O)[C@H](CCCCNC(=N)N)NC(=O)CSC[C@@H](C(=O)N[C@H](CO)C(=O)NCCOCCOCC(=O)NCCCCCCCCCCC(=O)O)NC(=O)[C@H](CO)NC(=O)[C@H](C(C)C)NC(=O)[C@H](CC2CCCCC2)NC(=O)[C@H](CCN)NC(=O)[C@@H](CC(C)C)NC(=O)[C@H](CCCN)NC1=O (stereo partly drawn) [Compound 3060] ({CH2CO}-[hArg]Y(Carboxymethyl)DWV[Bip][Ile(3ξ)][Orn][dL][Dab][Cha]VSC[dS][AEEA][Aun]-OH; thioether N-14) | 17.8
CC(C)C[C@H]1NC(=O)[C@H](CCCN)NC(=O)[C@H](CCC(=O)O)NC(=O)[C@H](Cc2ccc(-c3ccccc3)cc2)NC(=O)[C@H](C(C)C)NC(=O)[C@H](Cc2c[nH]c3ccccc23)NC(=O)[C@H](CC(=O)O)NC(=O)[C@H](Cc2ccc(C(=O)O)cc2)NC(=O)[C@H](Cc2ccc(OCC(=O)O)cc2)NC(=O)CSC[C@@H](C(=O)NCC(=O)NCCOCCOCC(=O)N[C@@H](CCCN)C(=O)NCCCCCCCCCCCC(=O)O)NC(=O)[C@H](CO)NC(=O)[C@H](C(C)C)NC(=O)[C@H](CC2CCCCC2)NC(=O)[C@H](CCN)NC1=O [Compound 3062] ({CH2CO}-Y(Carboxymethyl)[Phe(4-COOH)]DWV[Bip]E[Orn][dL][Dab][Cha]VSCG[AEEA][Orn][12Ado]-OH; thioether N-14) | 33
CC(C)C[C@H]1NC(=O)[C@H](CCCN)NC(=O)[C@H](CCC(=O)O)NC(=O)[C@H](Cc2ccc(-c3ccccc3)cc2)NC(=O)[C@H](C(C)C)NC(=O)[C@H](Cc2c[nH]c3ccccc23)NC(=O)[C@H](CC(=O)O)NC(=O)[C@H](Cc2ccc(C(=O)O)cc2)NC(=O)[C@H](Cc2ccc(OCC(=O)O)cc2)NC(=O)CSC[C@@H](C(=O)N[C@H](CO)C(=O)NCCOCCOCC(=O)N[C@@H](CCCN)C(=O)NCCCCCCCCCCCC(=O)O)NC(=O)[C@H](CO)NC(=O)[C@H](C(C)C)NC(=O)[C@H](CC2CCCCC2)NC(=O)[C@H](CCN)NC1=O [Compound 3063] ({CH2CO}-Y(Carboxymethyl)[Phe(4-COOH)]DWV[Bip]E[Orn][dL][Dab][Cha]VSC[dS][AEEA][Orn][12Ado]-OH; thioether N-14) | 13.4
CC(C)C[C@H]1NC(=O)[C@H](CCCN)NC(=O)[C@H](C(C)C)NC(=O)[C@H](Cc2ccc(-c3ccccc3)cc2)NC(=O)[C@H](C(C)C)NC(=O)[C@H](Cc2c[nH]c3ccccc23)NC(=O)[C@H](CC(=O)O)NC(=O)[C@H](Cc2ccc(C(=O)O)cc2)NC(=O)[C@H](Cc2ccc(OCC(=O)O)cc2)NC(=O)CSC[C@@H](C(=O)N[C@H](CO)C(=O)NCCOCCOCC(=O)N[C@@H](CCCN)C(=O)NCCCCCCCCCCCC(=O)O)NC(=O)[C@H](CO)NC(=O)[C@H](C(C)C)NC(=O)[C@H](CC2CCCCC2)NC(=O)[C@H](CCN)NC1=O [Compound 3064] ({CH2CO}-Y(Carboxymethyl)[Phe(4-COOH)]DWV[Bip]V[Orn][dL][Dab][Cha]VSC[dS][AEEA][Orn][12Ado]-OH; thioether N-14) | 32.1
CC(C)C[C@H]1NC(=O)[C@H](CCCN)NC(=O)[C@H](C(C)C)NC(=O)[C@H](Cc2ccc(-c3ccccc3)cc2)NC(=O)[C@H](C(C)C)NC(=O)[C@H](Cc2csc3ccccc23)NC(=O)[C@H](CC(=O)O)NC(=O)[C@H](Cc2ccc(OCC(=O)O)cc2)NC(=O)[C@H](CCCCNC(=N)N)NC(=O)CSC[C@@H](C(=O)NCC(=O)NCCOCCOCC(=O)N[C@H](CCCN)C(=O)NCCCCCCCCCCC(=O)O)NC(=O)[C@H](CO)NC(=O)[C@H](C(C)C)NC(=O)[C@H](CC2CCCCC2)NC(=O)[C@H](CCN)NC1=O [Compound 3065] ({CH2CO}-[hArg]Y(Carboxymethyl)D[Bta]V[Bip]V[Orn][dL][Dab][Cha]VSCG[AEEA][dOrn][Aun]-OH; thioether N-14) | 19.2
CC(C)C[C@H]1NC(=O)[C@H](CCCN)NC(=O)[C@H](C(C)C)NC(=O)[C@H](Cc2ccc(-c3ccccc3)cc2)NC(=O)[C@H](C(C)C)NC(=O)[C@H](Cc2csc3ccccc23)NC(=O)[C@H](CC(=O)O)NC(=O)[C@H](Cc2ccc(OCC(=O)O)cc2)NC(=O)[C@H](CCCCNC(=N)N)NC(=O)CSC[C@@H](C(=O)NCCOCCOCC(=O)N[C@@H](CCCN)C(=O)NCCCCCCCCCCC(=O)O)NC(=O)[C@H](CO)NC(=O)[C@H](C(C)C)NC(=O)[C@H](CC2CCCCC2)NC(=O)[C@H](CCN)NC1=O [Compound 3066] ({CH2CO}-[hArg]Y(Carboxymethyl)D[Bta]V[Bip]V[Orn][dL][Dab][Cha]VSC[AEEA][Orn][Aun]-OH; thioether N-14) | 17.1
CC(C)C[C@H]1NC(=O)[C@H](CCCN)NC(=O)[C@H](C(C)C)NC(=O)[C@H](Cc2ccc(-c3ccccc3)cc2)NC(=O)[C@H](C(C)C)NC(=O)[C@H](Cc2csc3ccccc23)NC(=O)[C@H](CC(=O)O)NC(=O)[C@H](Cc2ccc(OCC(=O)O)cc2)NC(=O)[C@H](CCCCNC(=N)N)NC(=O)CSC[C@@H](C(=O)N[C@@H](CCCN)C(=O)NCCCCCCCCCCC(=O)O)NC(=O)[C@H](CO)NC(=O)[C@H](C(C)C)NC(=O)[C@H](CC2CCCCC2)NC(=O)[C@H](CCN)NC1=O [Compound 3067] ({CH2CO}-[hArg]Y(Carboxymethyl)D[Bta]V[Bip]V[Orn][dL][Dab][Cha]VSC[Orn][Aun]-OH; thioether N-14) | 41
CC(C)C[C@H]1NC(=O)[C@H](CCCCN)NC(=O)[C@H](C(C)C)NC(=O)[C@H](Cc2ccc(-c3ccccc3)cc2)NC(=O)[C@H](C(C)C)NC(=O)[C@H](Cc2c[nH]c3ccccc23)NC(=O)[C@H](CC(=O)O)NC(=O)[C@H](Cc2ccc(OCC(=O)O)cc2)NC(=O)[C@H](CC(N)=O)NC(=O)CSC[C@@H](C(=O)NCCOCCOCC(=O)N[C@@H](CCCN)C(=O)NCCCCCCCCCCC(=O)O)NC(=O)[C@H](CO)NC(=O)[C@H](C(C)C)NC(=O)[C@H](CC2CCCCC2)NC(=O)[C@H](CCN)NC1=O [Compound 3070] ({CH2CO}-NY(Carboxymethyl)DWV[Bip]VK[dL][Dab][Cha]VSC[AEEA][Orn][Aun]-OH; thioether N-14) | 5.1
CC(C)C[C@@H]1NC(=O)[C@H](CCN)NC(=O)[C@@H](CC(C)C)NC(=O)[C@H](CCCN)NC(=O)[C@H](C(C)C)NC(=O)[C@H](Cc2ccc(-c3ccccc3)cc2)NC(=O)[C@H](CC(C)C)NC(=O)[C@H](Cc2c[nH]c3ccccc23)NC(=O)[C@H](CC(=O)O)NC(=O)[C@H](Cc2ccc(OCC(=O)O)cc2)NC(=O)[C@H](Cc2ccc(OCC(=O)O)cc2)NC(=O)CSC[C@@H](C(=O)N[C@H](CCN)C(=O)NCCOCCOCC(=O)NCCCCCCCCCCC(=O)O)NC(=O)[C@H](CO)NC(=O)[C@H](C(C)C)CC1=O [Compound 3071] ({CH2CO}-Y(Carboxymethyl)Y(Carboxymethyl)DWL[Bip]V[Orn][dL][Dab][X2]SC[dDab][AEEA][Aun]-OH; thioether N-13) | 17.2
CC(C)C[C@@H]1NC(=O)[C@H](CCN)NC(=O)[C@@H](CC(C)C)NC(=O)[C@H](CCCN)NC(=O)[C@H](C(C)C)NC(=O)[C@H](Cc2ccc(-c3ccccc3)cc2)NC(=O)[C@H](CC(C)C)NC(=O)[C@H](Cc2c[nH]c3ccccc23)NC(=O)[C@H](CC(=O)O)NC(=O)[C@H](Cc2ccncc2)NC(=O)[C@H](Cc2ccc(OCC(=O)O)cc2)NC(=O)CSC[C@@H](C(=O)N[C@H](CCN)C(=O)NCCOCCOCC(=O)NCCCCCCCCCCC(=O)O)NC(=O)[C@H](CO)NC(=O)[C@H](C(C)C)CC1=O [Compound 3072] ({CH2CO}-Y(Carboxymethyl)[4Pal]DWL[Bip]V[Orn][dL][Dab][X2]SC[dDab][AEEA][Aun]-OH; thioether N-13) | 13.5
